Results on seven molecules are retold here after ChEMBL document CHEMBL3044682, “QSAR modeling of bifunctional quinolonyl diketo acid derivatives as integrase inhibitors” (Med Chem Res, 2012).

This assay deals with Human immunodeficiency virus type 1 integrase (Human immunodeficiency virus 1, UniProt Q7ZJM1). The assay can be described thus: Inhibition of Human immunodeficiency virus 1 integrase strand transfer activity.
Human immunodeficiency virus type 1 integrase, sequence (Q7ZJM1 whole entry): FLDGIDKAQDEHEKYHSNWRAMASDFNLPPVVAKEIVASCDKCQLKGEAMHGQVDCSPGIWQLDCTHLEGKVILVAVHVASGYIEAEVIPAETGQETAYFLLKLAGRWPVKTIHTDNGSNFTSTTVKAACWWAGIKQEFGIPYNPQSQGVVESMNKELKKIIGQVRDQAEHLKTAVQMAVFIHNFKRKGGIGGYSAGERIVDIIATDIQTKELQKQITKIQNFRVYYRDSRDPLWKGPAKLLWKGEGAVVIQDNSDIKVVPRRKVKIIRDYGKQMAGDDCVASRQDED
In general, IC50 refers to the midpoint of a concentration-inhibition curve. A high value points to weaker potency. Molecule `CC[C@@H](CO)n1cc(CO)c(=O)c2cc(Cc3ccccc3F)c(OC)cc21` had an IC50 of 7.2 nM.

Molecule `Cc1cccc(/C=C/c2ccc3ccc(C(=O)O)c(O)c3n2)c1C` gave an IC50 of 60.6 nM.

`O=C(O)/C(O)=C/C(=O)c1ccc2[nH]cc(C(=O)/C=C(\O)C(=O)O)c(=O)c2c1` had a half-maximal inhibitory concentration (IC50) of 430 nM.

The molecule `O=C(O)/C(O)=C/C(=O)c1ccc2c(c1)c(=O)c(C(=O)/C=C(\O)C(=O)O)cn2-c1ccccc1` showed a concentration for half-maximal inhibition (IC50) of 12 nM. Against the preceding molecule, the IC50 is about 36-fold lower.

On to `O=C(O)/C(O)=C/C(=O)c1cn(Cc2cccc(F)c2)c2ccccc2c1=O`, for which the IC50 was 31.3 nM.

Consider `O=C(O)/C(O)=C/C(=O)c1ccc2c(c1)c(=O)c(C(=O)O)cn2Cc1ccc(F)cc1` [13, RDS-1607], for which the IC50 was 1090 nM.

`CCOC(=O)/C(O)=C/C(=O)c1cn(Cc2cccc(F)c2)c2ccccc2c1=O` [RDS-1624]: the IC50 was 326 nM.
